The values below come from patent publication US10004786B2 (Zealand Pharma A/S, priority 2009, dated 2018).

Numbered stars: 1 amine (or outer) side, 2 acyl side, 3 side chain; on linkers, the order of the positions; unused ones are H or OH. Bridge positions count the residues as written; N and C are the ends. Square brackets hold non-standard residues; d marks the D form. Side chains are listed from the residue outwards. Peptide text beside a SMILES is read from it. * marks the point of attachment. γGlu = O=C(O)[C@H](CCC(=O)[*:2])N[*:1]; Palmitoyl = CCCCCCCCCCCCCCCC(=O)*; Aib = CC(C)(N)C(=O)O

The half-life is how long it takes for the measured level to halve.

A short description of data set [1]: Pharmacokinetic screening in mouse plasma after subcutaneous administration. The following applies: sc, mice, 100 nmol/kg s.c., * = only two time points used for calculation. The data set is classed as in vivo. The procedure: Mice were dosed 100 nmol/kg subcutaneously (s.c.). The mice were sacrificed and the blood collected at the following time points; 0.5, 2, 4, 6, 16 and 24 h. Plasma samples were analyzed using protein precipitation, followed by solid phase extraction (SPE) and liquid chromatography mass spectrometry (LC-MS).
Pharmacokinetic profiles were determined for various acylated compounds.

The nature of data set [2]: Body weight gain in high fat fed C57BL/6J mice (10 days). The data set is classed as in vivo. The following applies: short term high fat-fed C57BL/6J mice; for body weight gain, high dose: 5 nmol/kg b.i.d. s.c. The procedure:
C57Bl/6J male mice, 6 weeks old, were acclimatized in their new environment for 4 weeks with free access to high fat diet (HFD) (D12492, Research Diet Inc., New Brunswick, USA) and water. The animals were injected s.c. with 100 μl vehicle for a period of three days to acclimatize the animals to handling and injections, prior to initiation of peptide treatment. […] Throughout the study, body weights were recorded daily and used to administer the body weight-corrected doses of peptide. All animals were sacrificed on the same day by cervical dislocation.
C57Bl/6J male mice on high fat diet (HFD) were treated (b.i.d.; s.c.) (0.5 and 5 nmol/kg) or vehicle. Body weights were recorded daily and used to administer the body weight-corrected doses of peptide throughout the study. Data are shown as mean±SEM in FIG. 7.

Take `CCCCCCCCCCCCCCCC(=O)N[C@@H](CCC(=O)NCCCC[C@H](NC(=O)[C@H](CC(=O)O)NC(=O)[C@H](CC(C)C)NC(=O)[C@H](Cc1ccc(O)cc1)NC(=O)[C@H](CCCCN)NC(=O)[C@H](CO)NC(=O)[C@H](Cc1ccc(O)cc1)NC(=O)[C@H](CC(=O)O)NC(=O)[C@H](CO)NC(=O)[C@@H](NC(=O)[C@H](Cc1ccccc1)NC(=O)[C@@H](NC(=O)CNC(=O)[C@H](CCC(N)=O)NC(=O)[C@H](CO)NC(=O)[C@@H](N)Cc1c[nH]cn1)[C@@H](C)O)[C@@H](C)O)C(=O)N[C@@H](CCCCN)C(=O)N[C@@H](C)C(=O)N[C@@H](C)C(=O)N[C@@H](Cc1c[nH]cn1)C(=O)N[C@@H](CC(=O)O)C(=O)N[C@@H](Cc1ccccc1)C(=O)N[C@H](C(=O)N[C@@H](CCC(=O)O)C(=O)N[C@@H](Cc1c[nH]c2ccccc12)C(=O)N[C@@H](CC(C)C)C(=O)N[C@@H](CC(C)C)C(=O)N[C@@H](CCCNC(=N)N)C(=O)N[C@@H](C)C(N)=O)C(C)C)C(=O)O` [Compound 2] (H-HSQGTFTSDYSKYLDK([γGlu-Palmitoyl])KAAHDFVEWLLRA-NH2): the half-life in data set [1] was 5.8 h. `CCCCCCCCCCCCCCCC(=O)N[C@@H](CCC(=O)NCCCC[C@H](NC(=O)[C@H](CO)NC(=O)[C@H](CC(=O)O)NC(=O)[C@H](CC(C)C)NC(=O)[C@H](Cc1ccc(O)cc1)NC(=O)[C@H](CCCCN)NC(=O)[C@H](CO)NC(=O)[C@H](Cc1ccc(O)cc1)NC(=O)[C@H](CC(=O)O)NC(=O)[C@H](CO)NC(=O)[C@@H](NC(=O)[C@H](Cc1ccccc1)NC(=O)[C@@H](NC(=O)CNC(=O)[C@H](CCC(N)=O)NC(=O)[C@H](CO)NC(=O)[C@@H](N)Cc1c[nH]cn1)[C@@H](C)O)[C@@H](C)O)C(=O)N[C@@H](C)C(=O)N[C@@H](C)C(=O)N[C@@H](Cc1c[nH]cn1)C(=O)N[C@@H](CC(=O)O)C(=O)N[C@@H](Cc1ccccc1)C(=O)N[C@H](C(=O)N[C@@H](CCC(=O)O)C(=O)N[C@@H](Cc1c[nH]c2ccccc12)C(=O)N[C@@H](CC(C)C)C(=O)N[C@@H](CC(C)C)C(=O)N[C@@H](CCCNC(=N)N)C(=O)N[C@@H](C)C(N)=O)C(C)C)C(=O)O` [Compound 3] (H-HSQGTFTSDYSKYLDSK([γGlu-Palmitoyl])AAHDFVEWLLRA-NH2): the “body weight gain, high dose” value in data set [2] is listed as “significantly decreased body weight gain at the high dose”. With `CCCCCCCCCCCCCCCC(=O)N[C@@H](CCC(=O)NCCCC[C@H](NC(=O)[C@H](C)NC(=O)[C@H](C)NC(=O)[C@H](CCCCN)NC(=O)[C@H](CO)NC(=O)[C@H](CC(=O)O)NC(=O)[C@H](CC(C)C)NC(=O)[C@H](Cc1ccc(O)cc1)NC(=O)[C@H](CCCCN)NC(=O)[C@H](CO)NC(=O)[C@H](Cc1ccc(O)cc1)NC(=O)[C@H](CC(=O)O)NC(=O)[C@H](CO)NC(=O)[C@@H](NC(=O)[C@H](Cc1ccccc1)NC(=O)[C@@H](NC(=O)CNC(=O)[C@H](CCC(N)=O)NC(=O)[C@H](CO)NC(=O)[C@@H](N)Cc1c[nH]cn1)[C@@H](C)O)[C@@H](C)O)C(=O)N[C@@H](CC(=O)O)C(=O)N[C@@H](Cc1ccccc1)C(=O)N[C@H](C(=O)N[C@@H](CCC(=O)O)C(=O)N[C@@H](Cc1c[nH]c2ccccc12)C(=O)N[C@@H](CC(C)C)C(=O)N[C@@H](CC(C)C)C(=O)N[C@@H](CCCNC(=N)N)C(=O)N[C@@H](C)C(N)=O)C(C)C)C(=O)O` [Compound 4] (H-HSQGTFTSDYSKYLDSKAAK([γGlu-Palmitoyl])DFVEWLLRA-NH2), the half-life in data set [1] was 2 h. As for `CCCCCCCCCCCCCCCC(=O)N[C@@H](CCC(=O)NCCCC[C@H](NC(=O)[C@H](CC(C)C)NC(=O)[C@H](Cc1c[nH]c2ccccc12)NC(=O)[C@H](CCC(=O)O)NC(=O)[C@@H](NC(=O)[C@H](Cc1ccccc1)NC(=O)[C@H](CC(=O)O)NC(=O)[C@H](Cc1c[nH]cn1)NC(=O)[C@H](C)NC(=O)[C@H](C)NC(=O)[C@H](CCCCN)NC(=O)[C@H](CO)NC(=O)[C@H](CC(=O)O)NC(=O)[C@H](CC(C)C)NC(=O)[C@H](Cc1ccc(O)cc1)NC(=O)[C@H](CCCCN)NC(=O)[C@H](CO)NC(=O)[C@H](Cc1ccc(O)cc1)NC(=O)[C@H](CC(=O)O)NC(=O)[C@H](CO)NC(=O)[C@@H](NC(=O)[C@H](Cc1ccccc1)NC(=O)[C@@H](NC(=O)CNC(=O)[C@H](CCC(N)=O)NC(=O)[C@H](CO)NC(=O)[C@@H](N)Cc1c[nH]cn1)[C@@H](C)O)[C@@H](C)O)C(C)C)C(=O)N[C@@H](CCCNC(=N)N)C(=O)N[C@@H](C)C(N)=O)C(=O)O` [Compound 5] (H-HSQGTFTSDYSKYLDSKAAHDFVEWLK([γGlu-Palmitoyl])RA-NH2), the half-life in data set [1] is 5.3 h. As to `CCCCCCCCCCCCCCCC(=O)N[C@@H](CCC(=O)NCCCC[C@H](NC(=O)[C@H](CC(C)C)NC(=O)[C@H](CC(C)C)NC(=O)[C@H](Cc1c[nH]c2ccccc12)NC(=O)[C@H](CCC(=O)O)NC(=O)[C@@H](NC(=O)[C@H](Cc1ccccc1)NC(=O)[C@H](CC(=O)O)NC(=O)[C@H](Cc1c[nH]cn1)NC(=O)[C@H](C)NC(=O)[C@H](C)NC(=O)[C@H](CCCCN)NC(=O)[C@H](CO)NC(=O)[C@H](CC(=O)O)NC(=O)[C@H](CC(C)C)NC(=O)[C@H](Cc1ccc(O)cc1)NC(=O)[C@H](CCCCN)NC(=O)[C@H](CO)NC(=O)[C@H](Cc1ccc(O)cc1)NC(=O)[C@H](CC(=O)O)NC(=O)[C@H](CO)NC(=O)[C@@H](NC(=O)[C@H](Cc1ccccc1)NC(=O)[C@@H](NC(=O)CNC(=O)[C@H](CCC(N)=O)NC(=O)[C@H](CO)NC(=O)[C@@H](N)Cc1c[nH]cn1)[C@@H](C)O)[C@@H](C)O)C(C)C)C(=O)N[C@@H](C)C(N)=O)C(=O)O` [Compound 6] (H-HSQGTFTSDYSKYLDSKAAHDFVEWLLK([γGlu-Palmitoyl])A-NH2), the “body weight gain, low dose” value in data set [2] (0.5 nmol/kg b.i.d. s.c.) is recorded as “significantly decreased body weight gain”. Also, in data set [2], the “body weight gain, high dose” value was “only at the low dose”. Also, the half-life in data set [1] is 4.8 h. As for `CCCCCCCCCCCCCCCC(=O)N[C@@H](CCC(=O)NCCCC[C@H](NC(=O)[C@H](CO)NC(=O)[C@H](CC(=O)O)NC(=O)[C@H](CC(C)C)NC(=O)[C@H](Cc1ccc(O)cc1)NC(=O)[C@H](CCCCN)NC(=O)[C@H](CO)NC(=O)[C@H](Cc1ccc(O)cc1)NC(=O)[C@H](CC(=O)O)NC(=O)[C@H](CO)NC(=O)[C@@H](NC(=O)[C@H](Cc1ccccc1)NC(=O)[C@@H](NC(=O)CNC(=O)[C@H](CCC(N)=O)NC(=O)C(C)(C)NC(=O)[C@@H](N)Cc1c[nH]cn1)[C@@H](C)O)[C@@H](C)O)C(=O)N[C@@H](C)C(=O)N[C@@H](C)C(=O)N[C@@H](CCCNC(=N)N)C(=O)N[C@@H](CC(=O)O)C(=O)N[C@@H](Cc1ccccc1)C(=O)N[C@H](C(=O)N[C@@H](C)C(=O)N[C@@H](Cc1c[nH]c2ccccc12)C(=O)N[C@@H](CC(C)C)C(=O)N[C@@H](CC(C)C)C(=O)N[C@@H](CCCNC(=N)N)C(=O)N[C@@H](C)C(N)=O)C(C)C)C(=O)O` [Compound 9] (H-H[Aib]QGTFTSDYSKYLDSK([γGlu-Palmitoyl])AARDFVAWLLRA-NH2), the half-life in data set [1] is 2.4 h. Regarding `CCCCCCCCCCCCCCCC(=O)N[C@@H](CCC(=O)NCCCC[C@H](NC(=O)[C@H](CC(C)C)NC(=O)[C@H](CC(C)C)NC(=O)[C@H](Cc1c[nH]c2ccccc12)NC(=O)[C@H](CCC(=O)O)NC(=O)[C@@H](NC(=O)[C@H](Cc1ccccc1)NC(=O)[C@H](CC(=O)O)NC(=O)[C@H](Cc1c[nH]cn1)NC(=O)[C@H](C)NC(=O)[C@H](C)NC(=O)[C@H](CCCCN)NC(=O)[C@H](CO)NC(=O)[C@H](CC(=O)O)NC(=O)[C@H](CC(C)C)NC(=O)[C@H](Cc1ccc(O)cc1)NC(=O)[C@H](CCCCN)NC(=O)[C@H](CO)NC(=O)[C@H](Cc1ccc(O)cc1)NC(=O)[C@H](CC(=O)O)NC(=O)[C@H](CO)NC(=O)[C@@H](NC(=O)[C@H](Cc1ccccc1)NC(=O)[C@@H](NC(=O)CNC(=O)[C@H](CCC(N)=O)NC(=O)C(C)(C)NC(=O)[C@@H](N)Cc1c[nH]cn1)[C@@H](C)O)[C@@H](C)O)C(C)C)C(=O)N[C@@H](C)C(N)=O)C(=O)O` [Compound 12] (H-H[Aib]QGTFTSDYSKYLDSKAAHDFVEWLLK([γGlu-Palmitoyl])A-NH2), the “body weight gain, high dose” value in data set [2] is given as “significantly decreased body weight gain at the high dose”. In addition, the half-life in data set [1] is 6 h. Turning to `CCCCCCCCCCCCCCCC(=O)N[C@@H](CCC(=O)NCCCC[C@H](NC(=O)[C@H](CO)NC(=O)[C@H](CC(=O)O)NC(=O)[C@H](CC(C)C)NC(=O)[C@H](Cc1ccc(O)cc1)NC(=O)[C@H](CCCCN)NC(=O)[C@H](CO)NC(=O)[C@H](Cc1ccc(O)cc1)NC(=O)[C@H](CC(=O)O)NC(=O)[C@H](CO)NC(=O)[C@@H](NC(=O)[C@H](Cc1ccccc1)NC(=O)[C@@H](NC(=O)CNC(=O)[C@H](CCC(N)=O)NC(=O)C(C)(C)NC(=O)[C@@H](N)Cc1c[nH]cn1)[C@@H](C)O)[C@@H](C)O)C(=O)N[C@@H](C)C(=O)N[C@@H](C)C(=O)N[C@@H](Cc1c[nH]cn1)C(=O)N[C@@H](CC(=O)O)C(=O)N[C@@H](Cc1ccccc1)C(=O)N[C@H](C(=O)N[C@H]1CCC(=O)NCCCC[C@@H](C(=O)N[C@@H](C)C(N)=O)NC(=O)[C@H](CC(C)C)NC(=O)[C@H](CC(C)C)NC(=O)[C@H](Cc2c[nH]c3ccccc23)NC1=O)C(C)C)C(=O)O` [Compound 13] (H-H[Aib]QGTFTSDYSKYLDSK([γGlu-Palmitoyl])AAHDFVEWLLKA-NH2; lactam 24-28), the half-life in data set [1] is 6.4 h.
